The record followed here is ChEMBL document CHEMBL4417631, “Oral peptide inhibitors of interleukin-23 receptor and their use to treat inflammatory bowel diseases” (2017).

Where a SMILES comes first, the peptide text is derived from it. [ ]: non-standard residue; d: D form. hLeu = CC(C)CC[C@H](N)C(=O)O

In this assay the target is T1, Interleukin-23 receptor (Homo sapiens, UniProt Q5VWK5).
T1 sequence (Q5VWK5 whole entry): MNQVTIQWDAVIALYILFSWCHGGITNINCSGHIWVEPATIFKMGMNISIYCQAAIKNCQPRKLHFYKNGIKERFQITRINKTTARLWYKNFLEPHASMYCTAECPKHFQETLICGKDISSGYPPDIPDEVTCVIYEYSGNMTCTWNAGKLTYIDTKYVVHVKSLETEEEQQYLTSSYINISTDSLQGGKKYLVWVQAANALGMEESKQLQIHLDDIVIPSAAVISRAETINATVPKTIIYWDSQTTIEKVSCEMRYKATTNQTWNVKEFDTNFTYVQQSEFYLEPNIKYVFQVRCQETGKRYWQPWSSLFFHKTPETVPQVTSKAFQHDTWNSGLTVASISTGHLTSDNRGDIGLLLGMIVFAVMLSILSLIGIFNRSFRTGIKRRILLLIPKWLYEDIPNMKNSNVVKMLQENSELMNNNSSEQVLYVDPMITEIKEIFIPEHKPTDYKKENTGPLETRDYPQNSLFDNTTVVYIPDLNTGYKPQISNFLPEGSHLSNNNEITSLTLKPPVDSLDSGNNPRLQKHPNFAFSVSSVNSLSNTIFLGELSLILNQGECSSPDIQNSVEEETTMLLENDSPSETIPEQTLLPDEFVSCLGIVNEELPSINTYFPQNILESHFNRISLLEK
The experiment in a line: Inhibition of interleukin-23 binding to human interleukin-23 receptor incubated for 2 hrs by competitive binding ELISA. For orientation: In an ELISA, binding on a coated surface is turned into a signal by an enzyme label.
As for `CC(=O)N[C@@H](CS)C(=O)N[C@@H](C)C(=O)N[C@@H](CC(=O)O)C(=O)N[C@@H](Cc1c[nH]c2ccccc12)C(=O)N[C@H](C(=O)N[C@@H](CS)C(=O)N[C@@H](Cc1ccc(O)cc1)C(=O)N[C@@H](Cc1cccc2ccccc12)C(=O)N[C@@H](Cc1ccccc1)C(=O)N[C@H](C(=O)N[C@@H](Cc1ccccc1)C(=O)NCC(N)=O)[C@@H](C)O)C(C)C`, the IC50 (as a rule, the point on the concentration scale where inhibition reaches its midpoint) was > 1000 nM.

With `CC(=O)N[C@@H](CS)C(=O)N[C@@H](CCCNC(=N)N)C(=O)N[C@@H](CC(=O)O)C(=O)N[C@@H](Cc1c[nH]c2ccccc12)C(=O)N[C@@H](CCC(N)=O)C(=O)N[C@@H](CS)C(=O)N[C@@H](Cc1ccc(O)cc1)C(=O)N[C@@H](Cc1c[nH]c2ccccc12)C(=O)N[C@@H](CCCNC(=N)N)C(=O)N[C@H](CCCCN)C(=O)N[C@@H](Cc1ccccc1)C(=O)NCC(=O)NCCOCCC(=O)N[C@H](CCCCN)C(N)=O`, the IC50 is > 1000 nM.

The compound `CC(=O)N[C@@H](CS)C(=O)N[C@@H](C)C(=O)N[C@@H](CC(=O)O)C(=O)N[C@@H](Cc1c[nH]c2ccccc12)C(=O)N[C@H](C(=O)N[C@@H](CS)C(=O)N[C@@H](Cc1ccc(O)cc1)C(=O)N[C@@H](Cc1c[nH]c2ccccc12)C(=O)N[C@@H](Cc1cnc[nH]1)C(=O)N[C@@H](Cc1ccccc1)C(=O)N[C@@H](Cc1cnc[nH]1)C(=O)N[C@@H](CCC(N)=O)C(=O)N[C@@H](CC(C)C)C(=O)N[C@@H](CCCNC(=N)N)C(=O)N[C@@H](CC(=O)O)C(=O)N[C@@H](C)C(N)=O)C(C)C` (Ac-CADWVCYWHFHQLRDA-NH2) displayed an IC50 of 500 to 1000 nM.

`CC(=O)N[C@H](CCCCN)C(=O)N[C@@H](CS)C(=O)N[C@@H](CCCNC(=N)N)C(=O)N[C@@H](CC(=O)O)C(=O)N[C@@H](Cc1c[nH]c2ccccc12)C(=O)N[C@@H](CCC(N)=O)C(=O)N[C@@H](CS)C(=O)N[C@@H](Cc1ccc(O)cc1)C(=O)N[C@@H](Cc1cccc2ccccc12)C(=O)N[C@@H](Cc1cnc[nH]1)C(=O)N[C@H](C(=O)N[C@@H](Cc1cnc[nH]1)C(=O)N(C)CC(=O)NCCOCCC(=O)N[C@H](CCCNC(=N)N)C(N)=O)[C@@H](C)O` gave an IC50 of 500 to 1000 nM.

Turning to `CC(C)[C@H](NC(=O)C[C@H](Cc1c[nH]c2ccccc12)NC(=O)[C@H](CC(=O)O)NC(=O)[C@H](C)NC(=O)[C@@H](N)CS)C(=O)N[C@@H](CS)C(=O)N[C@@H](Cc1ccc(O)cc1)C(=O)N[C@@H](Cc1c[nH]c2ccccc12)C(=O)N[C@@H](Cc1cnc[nH]1)C(=O)N[C@H](C(=O)N[C@@H](Cc1ccccc1)C(=O)NCC(N)=O)[C@@H](C)O`, the IC50 was > 1000 nM.

As for `CC(=O)N[C@@H](CS)C(=O)N[C@@H](CCC(N)=O)C(=O)N[C@H](C(=O)N[C@H](C(=O)N[C@@H](CCC(N)=O)C(=O)N[C@@H](CS)C(=O)N[C@@H](Cc1ccc(O)cc1)C(=O)N[C@@H](Cc1c[nH]c2ccccc12)C(=O)N[C@@H](CCC(C)C)C(=O)N[C@@H](CCC(=O)O)C(=O)N[C@@H](CC(N)=O)C(=O)NCC(N)=O)[C@@H](C)O)[C@@H](C)O` (Ac-CQTTQCYW[hLeu]ENG-NH2), the IC50 is > 10000 nM.

Consider `CC(=O)N[C@@H](CS)C(=O)N(C)[C@@H](CCCCN)C(=O)N[C@H](C(=O)N[C@@H](Cc1c[nH]c2ccccc12)C(=O)N[C@@H](CCC(N)=O)C(=O)N[C@@H](CS)C(=O)N[C@@H](Cc1ccc(O)cc1)C(=O)N[C@@H](Cc1c[nH]c2ccccc12)C(=O)N[C@@H](CCCNC(=N)N)C(=O)N[C@H](C(=O)N[C@@H](Cc1ccccc1)C(=O)NCC(=O)NCCOCC(=O)N[C@H](CCCCN)C(N)=O)C(C)C)[C@@H](C)O`, for which the IC50 was 80 nM.

As to `CC(=O)N[C@@H](CS)C(=O)N[C@@H](C)C(=O)N[C@@H](CC(=O)O)C(=O)N[C@@H](Cc1c[nH]c2ccccc12)C(=O)N[C@H](C(=O)N[C@@H](CS)C(=O)N[C@@H](Cc1ccc(O)cc1)C(=O)N[C@@H](Cc1c[nH]c2ccccc12)C(=O)N[C@@H](Cc1cnc[nH]1)C(=O)N[C@@H](CCC(=O)O)C(=O)N[C@@H](Cc1ccccc1)C(=O)NCC(N)=O)C(C)C`, the concentration for half-maximal inhibition (IC50) fell in the range of 500 to 1000 nM.

In turn, `CC(=O)N[C@H](C(=O)N[C@@H](CCC(N)=O)C(=O)N[C@H](C(=O)N[C@@H](Cc1c[nH]c2ccccc12)C(=O)N[C@@H](CCC(N)=O)C(=O)N[C@H](C(=O)N[C@@H](Cc1ccc(C#N)cc1)C(=O)N[C@@H](Cc1ccc2ccccc2c1)C(=O)N[C@@](C)(CCCN)C(=O)N[C@@H](CCC(=O)O)C(=O)N[C@@H](CC(N)=O)C(=O)NCC(N)=O)C(C)(C)S)[C@@H](C)O)C(C)(C)S` came in with an IC50 of 100 to 1000 nM.

For the compound `CC(=O)N[C@@H](CS)C(=O)N[C@@H](CCC(N)=O)C(=O)N[C@H](C(=O)N[C@@H](Cc1c[nH]c2ccccc12)C(=O)N[C@@H](CCC(N)=O)C(=O)N[C@@H](CS)C(=O)N[C@@H](Cc1ccc(O)cc1)C(=O)N[C@@](C)(Cc1c[nH]c2ccccc12)C(=O)N[C@@H](CCC(C)C)C(=O)N[C@@H](CCC(=O)O)C(=O)N[C@@H](CCC(N)=O)C(=O)NCC(N)=O)[C@@H](C)O`, the 50% inhibitory concentration (IC50) was > 30000 nM.

`CC(=O)NC1CCC/C=C\CC(C(=O)N[C@@H](Cc2ccc(O)cc2)C(=O)N[C@@H](Cc2c[nH]c3ccccc23)C(=O)N[C@@H](CCCNC(=N)N)C(=O)N[C@@H](CCCCN)C(=O)N[C@@H](Cc2ccccc2)C(=O)NCC(=O)NCCOCC(=O)N[C@H](CCCCN)C(N)=O)NC(=O)[C@H](CCC(N)=O)NC(=O)[C@H](Cc2c[nH]c3ccccc23)NC(=O)[C@H]([C@@H](C)O)NC(=O)[C@H](CCCNC(=N)N)NC1=O` (some centres undefined) registered an IC50 of 100 to 1000 nM.

`CCCCCCCCCCCCCCCC(=O)NCCCC[C@H](NC(=O)[C@H](Cc1c[nH]c2ccccc12)NC(=O)[C@H](Cc1ccc(O)cc1)NC(=O)[C@H](CS)NC(=O)[C@H](CCC(N)=O)NC(=O)[C@H](Cc1c[nH]c2ccccc12)NC(=O)[C@@H](NC(=O)[C@H](CCC(N)=O)NC(=O)[C@H](CS)NC(C)=O)[C@@H](C)O)C(=O)N[C@@H](CCC(=O)O)C(=O)N[C@@H](CC(N)=O)C(=O)NCC(N)=O` came in with an IC50 of 4880 nM.

With `CC(=O)N[C@@H](CS)C(=O)N[C@@H](CCCCN)C(=O)N[C@H](C(=O)N[C@@H](Cc1c[nH]c2ccccc12)C(=O)N[C@H](C(=O)N[C@@H](CS)C(=O)N[C@@H](Cc1ccc(O)cc1)C(=O)N[C@@H](Cc1c[nH]c2ccccc12)C(=O)N[C@@H](Cc1cnc[nH]1)C(=O)N[C@@H](CCC(=O)O)C(=O)N[C@@H](Cc1ccccc1)C(=O)NCC(N)=O)[C@@H](C)O)[C@@H](C)O` (Ac-CKTWTCYWHEFG-NH2), the IC50 is < 500 nM.

Consider `CC(=O)N[C@@H](CS)C(=O)N[C@@H](C)C(=O)N[C@@H](CC(=O)O)C(=O)N[C@@H](Cc1c[nH]c2ccccc12)C(=O)N[C@H](C(=O)N[C@@H](CS)C(=O)N[C@@H](Cc1ccc(O)cc1)C(=O)N[C@@H](Cc1c[nH]c2ccccc12)C(=O)N[C@@H](Cc1cnc[nH]1)C(=O)N[C@H](C(=O)N[C@@H](Cc1ccccc1)C(=O)NCC(=O)NCCOCC(=O)N[C@H](CCCCN)C(=O)O)[C@@H](C)O)C(C)C`, for which the IC50 is < 500 nM.

In the case of `CC(=O)N[C@@H](CS)C(=O)N[C@@H](CCC(N)=O)C(=O)N[C@H](C(=O)N[C@@H](Cc1c[nH]c2ccccc12)C(=O)N[C@@H](CCC(N)=O)C(=O)N[C@@H](CS)C(=O)N[C@@H](Cc1ccc(O)cc1)C(=O)N[C@H](CC(=O)N[C@@H](CCCNC(=N)N)C(=O)N[C@H](C(=O)N[C@@H](CC(N)=O)C(=O)NCC(=O)NCCOCC(=O)N[C@H](CCCCN)C(N)=O)C(C)C)Cc1ccccc1)[C@@H](C)O`, the IC50 was > 30000 nM.

Take `CC(=O)NCCCC[C@H](NC(=O)[C@](C)(CCCCN)NC(=O)[C@H](Cc1ccc2ccccc2c1)NC(=O)[C@H](Cc1ccc(-c2ccccc2)cc1)NC(=O)[C@@H](NC(=O)[C@H](CCC(N)=O)NC(=O)[C@H](Cc1c[nH]c2ccccc12)NC(=O)[C@@H](NC(=O)[C@H](CCC(N)=O)NC(=O)[C@@H](NC(C)=O)C(C)(C)S)[C@@H](C)O)C(C)(C)S)C(=O)N[C@@H](CC(N)=O)C(=O)NCC(N)=O`: the IC50 was > 10000 nM.

`C[C@@H](O)[C@H](NC(=O)[C@H](CC(=O)O)NC(=O)[C@@H](N)CS)C(=O)N[C@@H](Cc1c[nH]c2ccccc12)C(=O)N[C@@H](CCCCN)C(=O)N[C@@H](CS)C(=O)N[C@@H](Cc1ccc(O)cc1)C(=O)N[C@@H](Cc1c[nH]c2ccccc12)C(=O)N[C@@H](Cc1cnc[nH]1)C(=O)N[C@@H](CCCNC(=N)N)C(=O)N[C@@H](CCC(N)=O)C(=O)N[C@@H](CO)C(N)=O` (H-CDTWKCYWHRQS-NH2) returned an IC50 of 500 to 1000 nM.

For the compound `CC(=O)N[C@@H](CS)C(=O)N[C@@H](C)C(=O)N[C@@H](CC(=O)O)C(=O)N[C@@H](Cc1c[nH]c2ccccc12)C(=O)N[C@H](C(=O)N[C@@H](CS)C(=O)N[C@@H](Cc1ccc(O)cc1)C(=O)N[C@@H](Cc1c[nH]c2ccccc12)C(=O)N[C@@H](Cc1cnc[nH]1)C(=O)N[C@H](C(=O)N[C@@H](CCCCNC(=O)COCC(=O)NCCCC[C@H](NC(=O)[C@@H](NC(=O)[C@H](Cc1cnc[nH]1)NC(=O)[C@H](Cc1c[nH]c2ccccc12)NC(=O)[C@H](Cc1ccc(O)cc1)NC(=O)[C@H](CS)NC(=O)[C@@H](NC(=O)[C@H](Cc1c[nH]c2ccccc12)NC(=O)[C@H](CC(=O)O)NC(=O)[C@H](C)NC(=O)[C@H](CS)NC(C)=O)C(C)C)[C@@H](C)O)C(=O)NCC(=O)O)C(=O)NCC(=O)O)[C@@H](C)O)C(C)C`, the IC50 lay within 1000 to 10000 nM.

As to `CC(=O)N[C@@H](CS)C(=O)N[C@@H](C)C(=O)N[C@@H](CC(=O)O)C(=O)N[C@@H](Cc1c[nH]c2ccccc12)C(=O)N[C@H](C(=O)N[C@@H](CS)C(=O)N[C@@H](Cc1ccc(O)cc1)C(=O)N[C@@H](Cc1c[nH]c2ccccc12)C(=O)N[C@@H](Cc1cnc[nH]1)C(=O)N[C@H](C(=O)N[C@@H](Cc1ccccc1)C(=O)NCC(=O)NCCCC(=O)N[C@H](CCCCN)C(=O)O)[C@@H](C)O)C(C)C`, the IC50 is < 500 nM.
